Experimental data: paper PMC11587651, “Increased cytoplasmic expression of PETase enzymes in E. coli” (Microbial Cell Factories, 2024)

Target: T1, HiC (Mycothermus thermophilus, UniProt A0A075B5G4)
T1 construct: commercial enzyme Novozym 51032 (Strem), used as supplied
T1 sequence (A0A075B5G4 1-194): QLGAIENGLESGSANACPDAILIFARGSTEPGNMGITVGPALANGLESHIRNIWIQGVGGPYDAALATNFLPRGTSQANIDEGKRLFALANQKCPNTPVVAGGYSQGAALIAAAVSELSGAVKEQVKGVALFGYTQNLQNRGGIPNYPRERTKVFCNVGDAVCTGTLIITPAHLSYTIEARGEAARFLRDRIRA
Assay: HPLC of BHET to MHET conversion
Assay type: biochemical
Settings: 24% acetonitrile, 76% 100 mM potassium phosphate pH 7, 40 °C, 0.1 g HiC per g BHET; product MHET

## O=C(OCCO)c1ccc(C(=O)OCCO)cc1 [bis(2-hydroxyethyl) terephthalic acid]
  HPLC of BHET to MHET conversion: enzymatic hydrolysis of BHET using Humicola insolens cutinase (HiC
